Laboratory results reported in paper PMC11836120, “A small signaling domain controls PPIP5K phosphatase activity in phosphate homeostasis” (Nature Communications, 2025).

Assays:
[1] = molecular target: T1, ScVip1 kinase domain (ScVip1^KD) (Saccharomyces cerevisiae, UniProt Q06685); test: co-crystal structure, […] Å (crystallized with […] ADP and […] MgCl2); type: binding
T1 construct: gene VIP1; residues 186–522

[2] = molecular target: T2, ScVip1 phosphatase domain (ScVip1^PD) (Saccharomyces cerevisiae, UniProt Q06685); test: NMR time course of […],5-InsP8 hydrolysis; type: biochemical
T2 construct: gene VIP1; residues 536–1107
T2 sequence (Q06685 536-1107): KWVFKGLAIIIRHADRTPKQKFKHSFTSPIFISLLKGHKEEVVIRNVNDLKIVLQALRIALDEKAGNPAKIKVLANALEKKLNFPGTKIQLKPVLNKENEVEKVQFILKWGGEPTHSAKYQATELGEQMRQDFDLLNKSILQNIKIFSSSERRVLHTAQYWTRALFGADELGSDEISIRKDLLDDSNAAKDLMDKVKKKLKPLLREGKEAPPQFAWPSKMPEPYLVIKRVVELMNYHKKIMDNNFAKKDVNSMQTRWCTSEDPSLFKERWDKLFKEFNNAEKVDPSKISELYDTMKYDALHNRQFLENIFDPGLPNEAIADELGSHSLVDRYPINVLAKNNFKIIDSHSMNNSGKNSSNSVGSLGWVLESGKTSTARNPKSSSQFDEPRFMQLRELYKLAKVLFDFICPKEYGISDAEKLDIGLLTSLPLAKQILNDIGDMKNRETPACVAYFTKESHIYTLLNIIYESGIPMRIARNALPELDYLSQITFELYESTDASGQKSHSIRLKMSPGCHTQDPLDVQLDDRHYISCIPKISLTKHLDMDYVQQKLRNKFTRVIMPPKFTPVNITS

[3] = molecular target: T3, ScVip1 kinase-phosphatase tandem domains (ScVip1^KD-PD) (Saccharomyces cerevisiae, UniProt Q06685); test: HDX-MS, […] molar excess
T3 construct: gene VIP1
T3 sequence (Q06685 186-1107): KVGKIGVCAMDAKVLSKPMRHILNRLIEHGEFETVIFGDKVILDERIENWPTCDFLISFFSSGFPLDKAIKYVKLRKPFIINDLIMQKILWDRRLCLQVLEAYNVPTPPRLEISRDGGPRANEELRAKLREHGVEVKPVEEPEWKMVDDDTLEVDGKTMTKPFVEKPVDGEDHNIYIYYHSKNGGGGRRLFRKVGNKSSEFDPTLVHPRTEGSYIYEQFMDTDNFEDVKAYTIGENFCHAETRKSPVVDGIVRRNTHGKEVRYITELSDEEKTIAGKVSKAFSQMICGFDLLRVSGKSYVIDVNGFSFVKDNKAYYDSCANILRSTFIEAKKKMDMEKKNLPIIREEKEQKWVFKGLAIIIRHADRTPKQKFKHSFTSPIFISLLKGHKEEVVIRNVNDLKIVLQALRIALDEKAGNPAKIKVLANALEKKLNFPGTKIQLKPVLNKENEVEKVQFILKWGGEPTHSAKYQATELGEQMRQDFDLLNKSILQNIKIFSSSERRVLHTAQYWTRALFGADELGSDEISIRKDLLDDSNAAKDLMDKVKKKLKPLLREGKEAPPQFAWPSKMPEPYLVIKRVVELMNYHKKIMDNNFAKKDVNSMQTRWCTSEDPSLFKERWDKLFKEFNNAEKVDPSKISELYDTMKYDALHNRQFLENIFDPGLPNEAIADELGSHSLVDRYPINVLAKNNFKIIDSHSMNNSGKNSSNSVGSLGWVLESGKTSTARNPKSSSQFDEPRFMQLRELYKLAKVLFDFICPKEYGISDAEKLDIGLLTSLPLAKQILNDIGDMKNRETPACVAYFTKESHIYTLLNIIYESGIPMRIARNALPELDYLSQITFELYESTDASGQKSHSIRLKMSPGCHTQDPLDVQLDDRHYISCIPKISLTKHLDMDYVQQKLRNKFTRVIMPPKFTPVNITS

[4] = molecular target: T4, ScVip1 phosphatase domain (ScVip1^PD E991A) (Saccharomyces cerevisiae, UniProt Q06685, E991A); test: NMR and malachite green phosphatase assays; type: biochemical
T4 construct: gene VIP1; residues 536–1107
T4 sequence (Q06685 536-1107 E991A): T2 sequence (Q06685 536-1107)

[5] = substrate: O=P(O)(O)O[C@@H]1[C@@H](OP(=O)(O)O)[C@H](OP(=O)(O)OP(=O)(O)O)[C@@H](OP(=O)(O)O)[C@H](OP(=O)(O)OP(=O)(O)O)[C@@H]1OP(=O)(O)O; test: malachite green and NMR phosphatase assays, Michaelis-Menten KM; type: biochemical, Saccharomyces cerevisiae; conditions: phosphatase active site (RHxxR motif) and GAF-domain substrate channel
[6] = substrate: O=P(O)(O)O[C@@H]1[C@@H](OP(=O)(O)O)[C@@H](OP(=O)(O)O)[C@@H](OP(=O)(O)OP(=O)(O)O)[C@H](OP(=O)(O)O)[C@H]1OP(=O)(O)O; test: as above; type: biochemical, Saccharomyces cerevisiae

## Nc1ncnc2c1ncn2[C@@H]1O[C@H](COP(=O)(O)OP(=O)(O)O)[C@@H](O)[C@H]1O [ADP]
[1]
  co-crystal structure, 1.18 Å (crystallized with 5 mM ADP and 20 mM MgCl2): The structure of ScVip1^KD in complex with adenosine diphosphate revealed the typical ATP-grasp fold and substrate binding sites

## O=P(O)(O)O [inorganic phosphate]
[2]
  NMR time course of 1,5-InsP8 hydrolysis: ScVip1^PD is inhibited by Pi in a concentration-dependent manner, as inferred from NMR-based assays

## Nc1ncnc2c1ncn2[C@@H]1O[C@H](CO[P@](=O)(O)O[P@](=O)(O)NP(=O)(O)O)[C@@H](O)[C@H]1O [AMPPNP, AMP-PNP]
[3]
  HDX-MS, 100-fold molar excess: Addition of an ATP substrate analog reveals additional protected regions in the vicinity of the active site of the kinase domain

## O=P(O)(O)O[C@@H]1[C@@H](OP(=O)(O)O)[C@@H](OP(=O)(O)O)[C@@H](OP(=O)(O)OP(=O)(O)O)[C@H](OP(=O)(O)O)[C@H]1OP(=O)(O)O [1-InsP7]
[4]
  NMR and malachite green phosphatase assays: Glu991 to Ala mutant readily accepts 1-InsP7 as a substrate in both NMR and malachite green-based phosphatase assays

B1: ScVip1 phosphatase domain (ScVip1^PD) (Saccharomyces cerevisiae S288C) (protein)
chain: T2 sequence (Q06685 536-1107)
notes: residues 536–1107
[5]
  Km: 45 µM
[6]
  Km: 70 µM
